Data taken from patent publication US20070128217A1 (priority 2003, published 2007).

Key:
[1] = test system: antibodies in sera from SARS patients (sera 1a, 1b, 2, 6, 37, 62, London, SARS-yellow, SARS-green); format: binding, human; set-up: Binding of serum 6 to linear peptides of protein X1 of SARS-CoV Urbani / Binding of serum 37 to linear peptides of protein X1 of SARS-CoV Urbani / Binding of serum 6 to looped/cyclic peptide (PEPSCAN-ELISA) / Binding of serum 37 to looped/cyclic peptide (PEPSCAN-ELISA) / Binding of serum 37 to looped/cyclic peptides of protein X1 of SARS-CoV Urbani / Binding of serum 6 to linear peptides of protein X2 / Binding of serum 37 to linear peptides of protein X2 / Binding of serum 37 to looped/cyclic peptides of protein X2 of SARS-CoV Urbani / Binding of serum 6 to linear peptides of protein M of SARS-CoV Urbani / Binding of serum 37 to linear peptides of protein M of SARS-CoV Urbani / Binding of serum 6 to looped/cyclic peptides of protein M of SARS-CoV Urbani / Binding of serum 37 to looped/cyclic peptides of protein M of SARS-CoV Urbani / Binding of serum 6 to linear peptides of protein X3 of SARS-CoV Urbani / Binding of serum 37 to linear peptides of protein X3 of SARS-CoV Urbani / Binding of serum 37 to looped/cyclic peptides of protein X3 of SARS-CoV Urbani / Binding of serum 6 to linear peptides of protein X4 of SARS-CoV Urbani / Binding of serum 37 to linear peptides of protein X4 of SARS-CoV Urbani / Binding of serum 37 to looped/cyclic peptides of protein X4 of SARS-CoV Urbani / Binding of serum 6 to linear peptides of protein X5 of SARS-CoV Urbani / Binding of serum 37 to linear peptides of protein X5 of SARS-CoV Urbani / Binding of serum 37 to looped/cyclic peptides of protein X5 of SARS-CoV Urbani / Binding of serum 6 to linear peptides of protein N of SARS-CoV Urbani / Binding of serum 37 to linear peptides of protein N of SARS-CoV Urbani / Binding of serum 6 to linear peptide (PEPSCAN-ELISA) / Binding of serum 1a to looped/cyclic peptides of protein N of SARS-CoV Urbani / Binding of serum 1b to looped/cyclic peptides of protein N of SARS-CoV Urbani / Binding of serum 2 to looped/cyclic peptides of protein N of SARS-CoV Urbani / Binding of serum 6 to looped/cyclic peptides of protein N of SARS-CoV Urbani / Binding of serum 37 to looped/cyclic peptides of protein N of SARS-CoV Urbani / Binding of serum 62 to looped/cyclic peptides of protein N of SARS-CoV Urbani / Binding of serum London to looped/cyclic peptides of protein N of SARS-CoV Urbani / Binding of serum SARS-green to looped/cyclic peptides of protein N of SARS-CoV Urbani: unit not given here
[2] = test system: control sera (pooled serum of ten healthy LUMC hospital workers; commercial negative donor pooled serum from the Dutch bloodbank); format: binding, human; set-up: Binding of Control serum LUMC to linear peptides / Binding of Control serum Blood-bank to linear peptides / Binding of Control serum LUMC to looped peptides / Binding of Control Serum Blood-Bank to Looped peptides / Binding of Control serum LUMC to linear peptides of the protein M of SARS-CoV Urbani / Binding of Control serum Blood-bank to linear peptides of the protein M of SARS-CoV Urbani / Binding of Control serum LUMC to looped peptides of the protein M of SARS-CoV Urbani / Binding of Control Serum Blood-Bank to Looped peptides of the protein M of SARS-CoV Urbani: unit not given here
[3] = test system: rabbit serum obtained by immunizing a rabbit with the SARS-CoV strain Frankfurt 1; format: binding; set-up: Binding of a rabbit serum to linear peptides / Binding of a rabbit serum to looped peptides / Rabbit serum linear peptides / Rabbit serum looped peptides / Binding of a rabbit serum to linear peptides of protein N of SARS-CoV Urbani (Rabbit serum linear peptides) / Binding of a rabbit serum to looped/cyclic peptides of protein N of SARS-CoV Urbani (Rabbit serum looped peptides): unit not given here

Row | Sequence | Binding of Control Serum Blood-Bank to Looped peptides [2] | Binding of Control serum Blood-bank to linear peptides [2] | Binding of Control serum LUMC to linear peptides [2] | Binding of Control serum LUMC to looped peptides [2] | Binding of serum 1a to linear peptides of protein X5 of SARS-CoV Urbani [1] | Binding of serum 1a to looped/cyclic peptides of protein X5 of SARS-CoV Urbani [1] | Binding of serum 1b to linear peptides of protein X5 of SARS-CoV Urbani [1] | Binding of serum 1b to looped/cyclic peptides of protein X5 of SARS-CoV Urbani [1] | Binding of serum 2 to linear peptides of protein X5 of SARS-CoV Urbani [1] | Binding of serum 2 to looped/cyclic peptides of protein X5 of SARS-CoV Urbani [1] | Binding of serum 6 to linear peptides of protein X5 of SARS-CoV Urbani [1] | Binding of serum 6 to looped/cyclic peptides of protein X5 of SARS-CoV Urbani [1] | Binding of serum 37 to linear peptides of protein X5 of SARS-CoV Urbani [1] | Binding of serum 37 to looped/cyclic peptides of protein X5 of SARS-CoV Urbani [1] | Binding of serum 62 to linear peptides of protein X5 of SARS-CoV Urbani [1] | Binding of serum 62 to looped/cyclic peptides of protein X5 of SARS-CoV Urbani [1] | Binding of serum London to linear peptides of protein X5 of SARS-CoV Urbani [1] | Binding of serum London to looped/cyclic peptides of protein X5 of SARS-CoV Urbani [1] | Binding of serum SARS-green to linear peptides of protein X5 of SARS-CoV Urbani [1] | Binding of serum SARS-green to looped/cyclic peptides of protein X5 of SARS-CoV Urbani [1] | also measured
1 | QSTALQELLIQQWIQ | 0.6 | 0.6 | 0.4 | 0.6 |  |  |  |  |  |  |  |  |  |  |  |  |  |  |  |  | Binding of serum 1a to linear peptides of protein X2 [1]: 0.6; Binding of serum 1a to looped/cyclic peptides of protein X2 of SARS-CoV Urbani [1]: 0.6; Binding of serum 1b to linear peptides of protein X2 [1]: 0.4; Binding of serum 1b to looped/cyclic peptides of protein X2 of SARS-CoV Urbani [1]: 0.5; Binding of serum 2 to linear peptides of protein X2 [1]: 0.4; Binding of serum 2 to looped/cyclic peptides of protein X2 of SARS-CoV Urbani [1]: 0.4; Binding of serum 6 to linear peptides of protein X2 [1]: 0.4; Binding of serum 6 to looped/cyclic peptides of protein X2 of SARS-CoV Urbani [1]: 0.2; Binding of serum 37 to linear peptides of protein X2 [1]: 0.5; Binding of serum 37 to looped/cyclic peptides of protein X2 of SARS-CoV Urbani [1]: 0.4; Binding of serum 62 to linear peptides of protein X2 [1]: 0.5; Binding of serum 62 to looped/cyclic peptides of protein X2 of SARS-CoV Urbani [1]: 0.6; Binding of serum London to linear peptides of protein X2 [1]: 0.5; Binding of serum London to looped/cyclic peptides of protein X2 of SARS-CoV Urbani [1]: 0.2; Binding of serum SARS-green to linear peptides of protein X2 [1]: 0.6; Binding of serum SARS-green to looped/cyclic peptides of protein X2 of SARS-CoV Urbani [1]: 0.4; Binding of serum SARS-yellow to linear peptides of protein X2 [1]: 0.4; Binding of serum SARS-yellow to looped/cyclic peptides of protein X2 of SARS-CoV Urbani [1]: 0.4; Binding of a rabbit serum to linear peptides [3]: 0.2; Binding of a rabbit serum to looped peptides [3]: 0.4
2 | QTAAFRDVLVVLNKR | 0.7 | 0.6 | 0.8 | 0.5 | 0.5 | 0.6 | 0.5 | 0.5 | 0.6 | 0.6 | 0.6 | 0.8 | 0.5 | 0.6 | 0.4 | 0.6 | 0.5 | 0.5 | 0.2 | 0.3 | Binding of serum SARS-yellow to linear peptides of protein X5 of SARS-CoV Urbani [1]: 0.6; Binding of serum SARS-yellow to looped/cyclic peptides of protein X5 of SARS-CoV Urbani [1]: 0.4; Rabbit serum linear peptides [3]: 0.4; Rabbit serum looped peptides [3]: 0.5
3 | QTCTPNVTINCQDPA | 0.4 | 0.6 | 0.4 | 0.3 | 0.8 | 0.4 | 0.7 | 0.1 | 0.6 | 0.3 | 0.8 | 0.2 | 0.8 | 0.3 | 0.8 | 0.2 | 0.9 | 0.1 | 0.8 | 0.0 | Binding of serum SARS-yellow to linear peptides of protein X5 of SARS-CoV Urbani [1]: 0.1; Binding of serum SARS-yellow to looped/cyclic peptides of protein X5 of SARS-CoV Urbani [1]: 0.1; Rabbit serum linear peptides [3]: 0.3; Rabbit serum looped peptides [3]: 0.0
